From US4547508A, “1-Phenylisoquinoline derivatives, pharmaceutical products containing these compounds and their use” (Hoechst Aktiengesellschaft, priority 1982, dated 1985)

Columns and labels:
[1] = Acute toxicity in the mouse after intraperitoneal administration (ALD50); design: species or system male mice (Gassner, NMRI); details: in vivo, ip, deaths within 24 hours after administration
Protocol: A. Acute toxicity in the mouse after intraperitoneal administration (ALD50)
The experimental animals used were male mice (Gassner, NMRI) of body weight 20-30 g. 6 animals were tested in each group. The compounds were suspended in 1% strength methylhydroxyethylcellulose (MH) and administered intraperitoneally (i.p.) to the animals in a volume of 10 ml/kg of body weight. The compounds according to the invention were administered in doses of 3, 10, 30 and 100 mg/kg i.p.
The acute lethal dose (ALD50) was determined graphically from the number of animals which died within 24 hours after administration of the compound.

[2] = system: tetrabenazine-induced ptosis; assay: Prevention of the ptosis induced by tetrabenazine in mice after intraperitoneal administration; format: in vivo, male mice (Gassner, NMRI); details: ip; mouse, i.p., 30 minutes before TBZ 40 mg/kg i.p.; dose which reduces the mean ptosis index (maximum 4) by 50%
Protocol: B. Prevention of the ptosis induced by tetrabenazine in mice after intraperitoneal administration
The experimental animals used were male mice (Gassner, NMRI) of body weight 20-26 g. 5 animals were tested in each group. The compounds were suspended in 1% strength methylhydroxyethylcellulose and administered intraperitoneally (i.p.) to the animals in a volume of 10 ml/kg of body weight. The compounds according to the invention were tested in doses of 5, 10 and 20 mg/kg i.p. The control group merely received 10 ml/kg of MH not containing active ingredient i.p.
The componds were administered to the animals 30 minutes before the i.p. administration of tetrabenazine (TBZ). The control group merely received 1% strength MH and TBZ in accordance with the same schedule as that for the animals treated with the test substances.
30 minutes after the TBZ injection (TBZ: 40 mg/kg i.p.), the animals were placed in individual plastic boxes and the ptosis was assessed 1 minute later in accordance with the scheme below:
Eyes closed = 4 (100% ptosis)
Eyes 3/4 closed = 3 (75% ptosis)
Eyes 1/2 closed = 2 (50% ptosis)
Eyes 1/4 closed = 1 (25% ptosis)
Eyes open = 0 (0% ptosis)
The dose defined as the ED50 is that which reduces the mean ptosis index (maximum 4) by 50%.

[3] = system: norepinephrine uptake (synaptosomes from rat brain); assay: Inhibition of reuptake of norepinephrine in synaptosomes; format: biochemical; details: 14C-norepinephrine, pH 7.4, 37° C., 4 minutes
Protocol: C. Inhibition of reuptake of norepinephrine in synaptosomes
Synaptosomes from rat brain were isolated by the method of Whittaker (Handbook of Neurochemistry 2, 327-364, Editor A. Lajtha; London and New York, 1969) and the uptake of monoamine was measured by the method of Schacht and Heptner (Biochemical Pharmac. 23, 3413-3422). The ^14 C-norepinephrine uptake was measured in a Krebs-Henseleit bicarbonate buffer pH 7.4 which contained 11 millimoles of glucose. 2.5 ml of the suspension of synaptosomes were incubated with labeled norepinephrine at 37° C. in the presence or absence of the test substance. The incubation time was 4 minutes. Further uptake was then stopped by cooling in ice. In order to exclude non-specific adsorption, control samples were incubated at 0° C. under otherwise identical conditions.
The amounts of norepinephrine taken up were measured using the membrane filtration technique using a Millipore sampling manifold with cellulose nitrate filters of 25 mm diameter and 0.6 micrometer pore size. The synaptosomes were collected under reduced pressure and the radioactivity was determined in a Packard Tricarb scintillation counter. The amount of collected norepinephrine has been reported as a percentage of the radioactivity which was added to the incubation mixture.
The IC50 values (inhibition concentration) in the Table 1 below indicate the concentration of the test substances which show 50% inhibition of the uptake of ^14 C-norepinephrine.

Compound | LD50 at 24 h [1] | ED50 [2] | IC50 [3]
CN1CC=C(c2cc3ccccc3c(-c3ccccc3F)n2)CC1 [Example 8] | 85 mg/kg | 0.54 mg/kg | 10 nM
Cc1ccccc1-c1nc(C2CCN(C)CC2)cc2ccccc12 [Example 27] | 27 mg/kg | 0.53 mg/kg | –
C1=C(c2cc3ccccc3c(-c3ccccc3)n2)CCNC1 [Example 13] | 300 mg/kg | 0.5 mg/kg | 6.2 nM
C1=C(c2cc3ccccc3c(-c3ccccc3)n2)CNCC1 [Example 20] | 75 mg/kg | 0.33 mg/kg | 13 nM
c1ccc(-c2nc(C3CCNCC3)cc3ccccc23)cc1 [Example 21, 1-Phenyl-3-(4-piperidinyl)isoquinoline] | 75 mg/kg | 0.8 mg/kg | 17 nM
Cc1ccccc1-c1nc(C2=CCNCC2)cc2ccccc12 [Example 3, 1-(2-Methylphenyl)-3-(1,2,5,6-tetrahydro-4-pyridyl)isoquinoline] | 210 mg/kg | 0.13 mg/kg | 5.6 nM
CN1CC=C(c2cc3ccccc3c(-c3ccccc3Cl)n2)CC1 [Example 6] | 100 mg/kg | 0.79 mg/kg | 33 nM
C=CCN1CC=C(c2cc3ccccc3c(-c3ccccc3C)n2)CC1 [Example 11] | 300 mg/kg | 0.49 mg/kg | –
CCN1CC=C(c2cc3ccccc3c(-c3ccccc3C)n2)CC1 [Example 2, 3-(1-Ethyl-1,2,5,6-tetrahydro-4-pyridyl)-1-(2-methylphenyl)isoquinoline] | 100 mg/kg | 1.4 mg/kg | –
CN1CCC(c2cc3ccccc3c(-c3ccccc3)n2)CC1 [Example 25] | 28 mg/kg | 6.59 mg/kg | –
C=CCN1CCC(c2cc3ccccc3c(-c3ccccc3C)n2)CC1 [Example 23, 3-(1-Allyl-4-piperidinyl)-1-(2-methylphenyl)isoquinoline] | 55 mg/kg | 3 mg/kg | –
CN1CCC=C(c2cc3ccccc3c(-c3ccccc3)n2)C1 [Example 19] | 40 mg/kg | 3.3 mg/kg | 50 nM
